This experiment concerns the target protein kinase C. The experiment is described as follows: enzyme assay of protein kinase C activated with phosphatidylserine and diacylglycerol (according to EP-OS 0,255,126). Format: biochemical. As to conditions: read-out: 50% inhibition at a concentration of. As to the method: The compounds according to the invention are potent inhibitors of protein kinases, such as protein kinase C. […] The experiment was carried out according to EP-OS 0,255,126 (inhibition of protein kinase C). Admittedly, indolocarbazoles have already been described as inhibitors of protein kinase C (J Antibiotic 30:275, 1977; Biochem Biophys Res Commun 135:397, 1986). However, it is thereby mainly a question of indolocarbazole-N,N-glycosidesof microbial or semisynthetic origin.

For “2 (and 10)-Chloro-12-ethyl-6,7,12,13-tetrahydro-5-oxo-5H-indolo[2,3-a]pyrrolo[3,4-c]carbazole [Example 3.a]”, the IC50 is 310 nM.

The record behind these values is US5438050A, “Indolocarbazole derivatives, processes for their preparation and compositions containing them” (Godecke Aktiengesellschaft, priority 1988, dated 1995).
